Measurements as given in ChEMBL document CHEMBL3596103, “Synthesis of novel amide functionalized 2H-chromene derivatives by Ritter amidation of primary alcohol using HBF4·OEt2 as a mild and versatile reagent and evaluation of their antimicrobial and anti-biofilm activities” (Bioorg Med Chem Lett, 2015).
pIC50: −log10 of the molar value. ≈ marks a conversion by molar mass, not a printed value. Calls of active or inactive are those of the source. No cut-off for these calls is given here.

Legend:
[1] = test system: Raoultella planticola; experiment: Antimicrobial activity against Klebsiella planticola MTCC 530 incubated for 24 hrs at 37 degC by well diffusion method; assay type: functional; details: MTCC 530, 24 h
[2] = test system: Micrococcus luteus; experiment: Antimicrobial activity against Micrococcus luteus MTCC 2470 incubated for 24 hrs at 37 degC by well diffusion method; assay type: functional; details: MTCC 2470, 24 h
[3] = test system: Pseudomonas aeruginosa; experiment: Antimicrobial activity against Pseudomonas aeruginosa MTCC 2453 incubated for 24 hrs at 37 degC by well diffusion method; assay type: functional; details: MTCC 2453, 24 h
[4] = test system: Bacillus subtilis; experiment: Antimicrobial activity against Bacillus subtilis MTCC 121 incubated for 24 hrs at 37 degC by well diffusion method; assay type: functional; details: MTCC 121, 24 h
[5] = test system: Candida albicans; experiment: Antimicrobial activity against Candida albicans MTCC 3017 incubated for 24 hrs at 30 degC by well diffusion method; assay type: functional; details: MTCC 3017, 24 h
[6] = test system: Staphylococcus aureus; experiment: Antimicrobial activity against Staphylococcus aureus MLS16 MTCC 2940 incubated for 24 hrs at 37 degC by well diffusion method; assay type: functional; details: MLS16 MTCC 2940, 24 h
[7] = test system: Escherichia coli; experiment: Antimicrobial activity against Escherichia coli MTCC 739 incubated for 24 hrs at 37 degC by well diffusion method; assay type: functional; details: MTCC 739, 24 h
[8] = test system: Staphylococcus aureus; experiment: Induction of intracellular ROS accumulation in Staphylococcus aureus MLS16 MTCC 2940 sessile biofilm cells at 0.5 to 2 um incubated for 24 hrs at 35 degC by DCFH-DA dye based fluorescence assay; assay type: functional, organism-based
[9] = test system: Escherichia coli; experiment: Inhibition of bio-film formation of Escherichia coli MTCC 739 incubated for 24 hrs at 37 degC under static conditions by crystal violet staining method; assay type: functional, organism-based; details: MTCC 739, 24 h
[10] = test system: Staphylococcus aureus; experiment: Inhibition of bio-film formation of Staphylococcus aureus MLS16 MTCC 2940 incubated for 24 hrs at 37 degC under static conditions by crystal violet staining method; assay type: functional, organism-based; details: MLS16 MTCC 2940, 24 h
[11] = test system: Micrococcus luteus; experiment: Inhibition of bio-film formation of Micrococcus luteus MTCC 2470 incubated for 24 hrs at 37 degC under static conditions by crystal violet staining method; assay type: functional, organism-based; details: MTCC 2470, 24 h
[12] = test system: Raoultella planticola; experiment: Inhibition of bio-film formation of Klebsiella planticola MTCC 530 incubated for 24 hrs at 37 degC under static conditions by crystal violet staining method; assay type: functional, organism-based; details: MTCC 530, 24 h
[13] = test system: Bacillus subtilis; experiment: Inhibition of bio-film formation of Bacillus subtilis MTCC 121 incubated for 24 hrs at 37 degC under static conditions by crystal violet staining method; assay type: functional, organism-based; details: MTCC 121, 24 h
[14] = test system: Escherichia coli; experiment: Bactericidal activity against Escherichia coli MTCC 739 incubated for 24 hrs at 37 degC; assay type: functional; details: MTCC 739, 24 h
[15] = test system: Raoultella planticola; experiment: Bactericidal activity against Klebsiella planticola MTCC 530 incubated for 24 hrs at 37 degC; assay type: functional; details: MTCC 530, 24 h
[16] = test system: Micrococcus luteus; experiment: Bactericidal activity against Micrococcus luteus MTCC 2470 incubated for 24 hrs at 37 degC; assay type: functional; details: MTCC 2470, 24 h
[17] = test system: Bacillus subtilis; experiment: Bactericidal activity against Bacillus subtilis MTCC 121 incubated for 24 hrs at 37 degC; assay type: functional; details: MTCC 121, 24 h
[18] = test system: Staphylococcus aureus; experiment: Bactericidal activity against Staphylococcus aureus MLS16 MTCC 2940 incubated for 24 hrs at 37 degC; assay type: functional; details: MLS16 MTCC 2940, 24 h

Clc1ccc(COC(Cn2ccnc2)c2ccc(Cl)cc2Cl)c(Cl)c1 (stereo not drawn) [MICONAZOLE]
MIC [1]: > 125 µg/mL
MIC [2]: > 125 µg/mL
MIC [3]: > 125 µg/mL
MIC [4]: > 125 µg/mL
MIC [5]: 18.7 µM
MIC [6]: > 125 µg/mL
MIC [7]: > 125 µg/mL

CC[C@H]1OC(=O)[C@H](C)[C@@H](O[C@H]2C[C@@](C)(OC)[C@@H](O)[C@H](C)O2)[C@H](C)[C@@H](O[C@@H]2O[C@H](C)C[C@H](N(C)C)[C@H]2O)[C@](C)(O)C[C@@H](C)C(=O)[C@H](C)[C@@H](O)[C@]1(C)O [ERYTHROMYCIN]
Activity [8]: Active
pIC50 [9]: 6.37
pIC50 [10]: 6.60
pIC50 [11]: 6.51
pIC50 [12]: 6.46
pIC50 [13]: 6.38

O=C(CCBr)NCC1=Cc2cccc(F)c2OC1(O)C(F)(F)F (stereo not drawn)
MIC [5]: > 125 µg/mL
MIC [6]: > 125 µg/mL

CC(=O)NCC1=Cc2ccccc2OC1(O)C(F)(F)F (stereo not drawn)
MIC [1]: > 125 µg/mL
MIC [2]: > 125 µg/mL
MIC [3]: > 125 µg/mL
MIC [4]: > 125 µg/mL
MIC [5]: > 125 µg/mL
MIC [6]: > 125 µg/mL
MIC [7]: > 125 µg/mL

O=C(Cc1ccccc1)NCC1=Cc2ccccc2OC1(O)C(F)(F)F (stereo not drawn)
MIC [1]: > 125 µg/mL
MIC [2]: > 125 µg/mL
MIC [3]: > 125 µg/mL
MIC [4]: > 125 µg/mL
MIC [5]: > 125 µg/mL
MIC [6]: > 125 µg/mL
MIC [7]: > 125 µg/mL

O=C(CCCCBr)NCC1=Cc2ccccc2OC1(O)C(F)(F)F (stereo not drawn)
MIC [1]: > 125 µg/mL
MIC [2]: > 125 µg/mL
MIC [3]: > 125 µg/mL
MIC [4]: > 125 µg/mL
MIC [5]: > 125 µg/mL
MIC [6]: > 125 µg/mL
MIC [7]: > 125 µg/mL

O=C(O)c1cn(C2CC2)c2cc(N3CCNCC3)c(F)cc2c1=O [CIPROFLOXACIN]
MIC [1]: 2.7 µM
MBC [14]: 5.7 µM (≈ 1.89 µg/mL)
MBC [15]: 2.7 µM (≈ 0.895 µg/mL)
MBC [16]: 5.7 µM (≈ 1.89 µg/mL)
MIC [2]: 2.7 µM
MIC [3]: 2.7 µM
MIC [4]: 2.7 µM
MIC [5]: > 125 µg/mL
MIC [6]: 2.7 µM
MIC [7]: 2.7 µM
MBC [17]: 5.7 µM (≈ 1.89 µg/mL)
MBC [18]: 2.7 µM (≈ 0.895 µg/mL)

O=C(CCCCBr)NCC1=Cc2cc(Br)ccc2OC1(O)C(F)(F)F (stereo not drawn)
MIC [1]: > 125 µg/mL
MIC [2]: > 125 µg/mL
MIC [3]: > 125 µg/mL
MIC [4]: > 125 µg/mL
MIC [5]: > 125 µg/mL
MIC [6]: > 125 µg/mL
MIC [7]: > 125 µg/mL

CC(=O)NCC1=Cc2cc(Br)ccc2OC1(O)C(F)(F)F (stereo not drawn)
MIC [1]: > 125 µg/mL
MIC [2]: > 125 µg/mL
MIC [3]: > 125 µg/mL
MIC [4]: > 125 µg/mL
MIC [5]: > 125 µg/mL
MIC [6]: > 125 µg/mL
MIC [7]: > 125 µg/mL

O=C(CBr)NCC1=Cc2ccccc2OC1(O)C(F)(F)F (stereo not drawn)
MIC [1]: 19.1 µM
pIC50 [9]: 4.98
pIC50 [10]: 5.44
MBC [14]: 38.3 µM (≈ 14 µg/mL)
MBC [15]: 19.1 µM (≈ 6.99 µg/mL)
MBC [16]: 38.3 µM (≈ 14 µg/mL)
MIC [2]: 19.1 µM
pIC50 [11]: 5.08
MIC [3]: > 125 µg/mL
MIC [4]: 9.5 µM
MIC [5]: > 125 µg/mL
pIC50 [12]: 4.90
MIC [6]: 9.5 µM
MIC [7]: 19.1 µM
MBC [17]: 19.1 µM (≈ 6.99 µg/mL)
pIC50 [13]: 5.29
MBC [18]: 19.1 µM (≈ 6.99 µg/mL)

O=C(Cc1ccc(Br)cc1)NCC1=Cc2cc(Br)ccc2OC1(O)C(F)(F)F (stereo not drawn)
MIC [1]: 14.3 µM
pIC50 [9]: 5.24
pIC50 [10]: 5.21
MBC [14]: 14.3 µM (≈ 7.45 µg/mL)
MBC [15]: 57.3 µM (≈ 29.9 µg/mL)
MBC [16]: 28.6 µM (≈ 14.9 µg/mL)
MIC [2]: 28.6 µM
pIC50 [11]: 5.11
MIC [3]: > 125 µg/mL
MIC [4]: 14.3 µM
MIC [5]: > 125 µg/mL
pIC50 [12]: 4.83
MIC [6]: 14.3 µM
MIC [7]: 14.3 µM
MBC [17]: 28.6 µM (≈ 14.9 µg/mL)
pIC50 [13]: 5.06
MBC [18]: 14.3 µM (≈ 7.45 µg/mL)

O=C(CBr)NCC1=Cc2cc(Br)ccc2OC1(O)C(F)(F)F (stereo not drawn)
Activity [8]: Active
MIC [1]: 4 µM
pIC50 [9]: 5.85
pIC50 [10]: 5.92
MBC [14]: 16.6 µM (≈ 7.39 µg/mL)
MBC [15]: 8.3 µM (≈ 3.69 µg/mL)
MBC [16]: 8.3 µM (≈ 3.69 µg/mL)
MIC [2]: 8.3 µM
pIC50 [11]: 5.77
MIC [3]: > 125 µg/mL
MIC [4]: 4 µM
MIC [5]: > 125 µg/mL
pIC50 [12]: 5.77
MIC [6]: 4 µM
MIC [7]: 8.3 µM
MBC [17]: 4 µM (≈ 1.78 µg/mL)
pIC50 [13]: 5.85
MBC [18]: 4 µM (≈ 1.78 µg/mL)

O=C(Cc1ccc(Br)cc1)NCC1=Cc2ccccc2OC1(O)C(F)(F)F (stereo not drawn)
MIC [1]: 33.6 µM
pIC50 [10]: 4.77
MBC [14]: > 230 µM
MBC [15]: > 230 µM
MBC [16]: 33.6 µM (≈ 14.9 µg/mL)
MIC [2]: > 125 µg/mL
pIC50 [11]: 4.76
MIC [3]: > 125 µg/mL
MIC [4]: 33.6 µM
MIC [5]: > 125 µg/mL
MIC [6]: > 125 µg/mL
MIC [7]: > 125 µg/mL
MBC [17]: > 230 µM
MBC [18]: 67.2 µM (≈ 29.7 µg/mL)

O=C(CCBr)NCC1=Cc2cc(Br)ccc2OC1(O)C(F)(F)F (stereo not drawn)
MIC [1]: > 125 µg/mL
MIC [2]: > 125 µg/mL
MIC [3]: > 125 µg/mL
MIC [4]: > 125 µg/mL
MIC [5]: > 125 µg/mL
MIC [6]: > 125 µg/mL
MIC [7]: > 125 µg/mL

O=C(Cc1cccc(Cl)c1)NCC1=Cc2cc(Br)ccc2OC1(O)C(F)(F)F (stereo not drawn)
MIC [1]: 31.2 µM
pIC50 [9]: 5.09
pIC50 [10]: 5.04
MBC [14]: 37.1 µM (≈ 17.7 µg/mL)
MBC [15]: 74.2 µM (≈ 35.4 µg/mL)
MBC [16]: 74.2 µM (≈ 35.4 µg/mL)
MIC [2]: 31.2 µM
pIC50 [11]: 4.74
MIC [3]: > 125 µg/mL
MIC [4]: 31.2 µM
MIC [5]: > 125 µg/mL
pIC50 [12]: 4.61
MIC [6]: 15.6 µM
MIC [7]: 15.6 µM
MBC [17]: 74.2 µM (≈ 35.4 µg/mL)
pIC50 [13]: 4.65
MBC [18]: 37.1 µM (≈ 17.7 µg/mL)

O=C(Cc1ccccc1)NCC1=Cc2cc(Br)ccc2OC1(O)C(F)(F)F (stereo not drawn)
MIC [1]: 33.6 µM
pIC50 [10]: 4.66
MBC [14]: > 230 µM
MBC [15]: > 230 µM
MBC [16]: 33.6 µM (≈ 14.9 µg/mL)
MIC [2]: > 125 µg/mL
pIC50 [11]: 4.72
MIC [3]: > 125 µg/mL
MIC [4]: > 125 µg/mL
MIC [5]: > 125 µg/mL
MIC [6]: 33.6 µM
MIC [7]: > 125 µg/mL
MBC [17]: > 230 µM
MBC [18]: 67.2 µM (≈ 29.7 µg/mL)

O=C(CCBr)NCC1=Cc2ccccc2OC1(O)C(F)(F)F (stereo not drawn)
MIC [1]: > 125 µg/mL
MIC [2]: > 125 µg/mL
MIC [3]: > 125 µg/mL
MIC [4]: > 125 µg/mL
MIC [5]: > 125 µg/mL
MIC [6]: > 125 µg/mL
MIC [7]: > 125 µg/mL

O=C(Cc1cccc(Cl)c1)NCC1=Cc2ccccc2OC1(O)C(F)(F)F (stereo not drawn)
MIC [1]: 37.1 µM
pIC50 [10]: 4.71
MBC [14]: > 230 µM
MBC [15]: > 230 µM
MBC [16]: 74.2 µM (≈ 29.5 µg/mL)
MIC [2]: > 125 µg/mL
pIC50 [11]: 4.77
MIC [3]: > 125 µg/mL
MIC [4]: 74.2 µM
MIC [5]: > 125 µg/mL
MIC [6]: 37.1 µM
MIC [7]: > 125 µg/mL
MBC [17]: 74.2 µM (≈ 29.5 µg/mL)
pIC50 [13]: 4.36
MBC [18]: 37.1 µM (≈ 14.8 µg/mL)
